Literature values as cited in article PMC5228037, “Discovery and Mechanistic Characterization of Selective Inhibitors of H2S-producing Enzyme: 3-Mercaptopyruvate Sulfurtransferase (3MST) Targeting Active-site Cysteine Persulfide” (Scientific Reports, 2017).

Key:
[1] = target: 3MST; conditions: cited from earlier work; for Inhibition constant Ki for 3MST: substrate-like inhibitors
[2] = parameters: method as in PMID 26269587; conditions: cited from earlier work

| SMILES | Inhibition constant Ki for 3MST [1] | further results |
| --- | --- | --- |
| O=C(O)CCS [3-mercaptopropionic acid] | several | – |
| O=C(O)C(=O)CS [3MP, 3-mercaptopyruvate] | – | Km ([1]; substrate, read-out: Michaelis constant Km for 3MST): 4.08 mM |
| N[C@@H](CSS)C(=O)O [cysteine persulfide] | – | calculated pKa [2]: 4.34 |
| CC(=O)C(=O)O [pyruvate] | several | – |
